Results on eleven compounds are retold here after patent US9993459B2, “Selective HDAC6 inhibitors and uses thereof” (Universiteit Gent, priority 2015, dated 2018).

Values joined by “and” are separate entries in the source; they are usually repeats but may differ in a detail not shown here. Identical values can stand only once.

The target in one series is T1, HDAC6 (Homo sapiens, UniProt Q9UBN7).
T1 sequence (Q9UBN7 1-1215): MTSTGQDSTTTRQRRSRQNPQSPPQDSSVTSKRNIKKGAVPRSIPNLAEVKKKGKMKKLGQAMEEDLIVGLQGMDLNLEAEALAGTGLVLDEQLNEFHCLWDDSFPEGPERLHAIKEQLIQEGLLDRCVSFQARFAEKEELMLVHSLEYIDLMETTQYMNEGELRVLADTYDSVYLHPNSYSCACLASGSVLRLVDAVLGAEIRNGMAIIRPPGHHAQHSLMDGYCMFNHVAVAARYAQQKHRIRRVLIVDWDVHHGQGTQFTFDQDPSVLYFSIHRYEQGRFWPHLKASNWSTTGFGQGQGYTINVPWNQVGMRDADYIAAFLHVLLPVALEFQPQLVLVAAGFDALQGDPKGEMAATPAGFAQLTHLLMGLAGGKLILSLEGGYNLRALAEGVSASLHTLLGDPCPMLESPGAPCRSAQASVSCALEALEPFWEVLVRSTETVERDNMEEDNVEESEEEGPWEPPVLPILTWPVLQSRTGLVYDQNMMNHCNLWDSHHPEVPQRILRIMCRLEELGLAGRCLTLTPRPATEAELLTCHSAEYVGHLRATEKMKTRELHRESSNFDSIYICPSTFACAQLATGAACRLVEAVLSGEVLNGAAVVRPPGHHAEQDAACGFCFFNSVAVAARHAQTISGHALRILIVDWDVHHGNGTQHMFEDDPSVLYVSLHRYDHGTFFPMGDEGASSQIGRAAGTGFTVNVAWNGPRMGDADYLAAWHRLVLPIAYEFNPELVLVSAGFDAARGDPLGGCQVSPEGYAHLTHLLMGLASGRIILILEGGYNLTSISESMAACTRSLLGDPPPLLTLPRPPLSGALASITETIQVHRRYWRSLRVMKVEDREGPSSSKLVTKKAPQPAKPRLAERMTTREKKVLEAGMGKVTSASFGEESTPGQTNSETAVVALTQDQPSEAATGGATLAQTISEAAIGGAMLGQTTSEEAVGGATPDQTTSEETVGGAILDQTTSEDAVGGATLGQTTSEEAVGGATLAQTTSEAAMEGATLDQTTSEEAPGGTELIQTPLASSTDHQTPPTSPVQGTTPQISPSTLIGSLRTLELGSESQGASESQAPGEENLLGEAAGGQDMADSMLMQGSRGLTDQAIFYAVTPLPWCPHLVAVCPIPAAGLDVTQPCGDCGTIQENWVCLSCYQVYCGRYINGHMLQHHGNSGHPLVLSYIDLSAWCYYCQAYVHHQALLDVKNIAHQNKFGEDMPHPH
The series is described as follows: In vitro HDAC6 inhibition. It is filed as biochemical. As to conditions: for inhibition at 10 µM: HDAC6, 10 μM; for IC50: HDAC6, Table 1, read-out: IC50.

For a further series, the system named is AP-1. As to conditions: published before; cited from earlier work.
For series [1], the system named is glucocorticoid receptor, GR. The series is described as follows: GRE-dependent luciferase reporter p(GRE)2-50-luc in A549 cells. It is filed as cell-based. The settings on record: A549; DEX 1 μM; CpdA 10 μM before DEX. A general note: Reporter assays use an easily measured gene product as a stand-in for the process of interest.
Series [2] concerns acetylation of α-tubulin in Neuro-2a cells. Put plainly: Acetylation level of α-tubulin in Neuro-2a cells (Western blot). It is filed as cell-based, Mouse. As to conditions: overnight, Neuro-2a; for normalized ratio Acetyl α-Tubulin/α-Tubulin against Tubastatin A, Average: Average of N = 1 to 4. As for the experimental part:
FIG. 1: Potency of inhibiting HDAC6 by compounds 7a, 7b and 13a in Neuro-2a cells. A. Cells were treated overnight with different concentrations of the HDAC6 inhibitors and blotted of the acetylation of α-tubulin.
Mouse neuroblastoma (Neuro-2a) cells were grown in a 1:1 mix of D-MEM (Dulbecco's Modified Eagle Medium) and F12 medium supplemented with glutamax (Invitrogen), 100 μg/ml streptomycin, 100 U/ml penicillin (Invitrogen), 10% fetal calf serum (Greiner Bio-one), 1% non-essential amino acids (Invitrogen) and 1.6% NaHCO3 (Invitrogen) at 37° C. and 7.5% CO2. To split the cells, cells were washed with Versene (Invitrogen) and dissociated with 0.05% Trypsine-EDTA (Invitrogen).
For sodium dodecyl sulfate-polyacrylamide gel electrophoresis (SDS-PAGE) analysis, transfected cells were collected using the EpiQuik Total Histone Extraction Kit (EpiGentek) according to manufacturer's instructions. Protein concentrations were determined using microBCA kit (Thermo Fisher Scientific Inc., Pittsburgh, Pa., USA) according to manufacturer's instructions. Before resolving the samples on a 12% SDS-PAGE gel, samples containing equal amounts of protein were supplemented with reducing sample buffer (Thermo Scientific) and boiled at 95° C. for 5 min. After electrophoresis, the proteins were transferred to a polyvinylidene difluoride (PVDF) membrane (Millipore Corp., Bedford, Mass., USA). The non-specific binding was blocked by incubation of the membrane in 5% bovine serum albumin (BSA), diluted in Tris Buffered Saline Tween (TBST, 50 mM TRIS, 150 mM NaCl, 0.1% Tween-20 (Applichem, Darmstadt, Duitsland) for 1 h at room temperature followed by incubation with primary antibodies overnight. The antibodies, diluted in TBS-T, were directed against α-tubulin (1/5000, T6199, Sigma-Aldrich), and acetylated α-tubulin (1/5000, T6793 monoclonal, Sigma-Aldrich). The secondary antibodies, coupled to alkaline phosphatase (anti-mouse or anti-rabbit, 1/5000, Sigma-Aldrich) were used. Blots were visualised by adding the ECF substrate (Enhanced Chemical Fluorescence, GE Healthcare, Uppsala, Sweden) and imaged with the ImageQuant_LAS 4000. A mild reblotting buffer (Millipore) was applied to strip the blots. ImageQuant TL version 7.0-software was used to quantify the blots.
Neuro-2a cells were treated overnight with different concentrations of the HDAC6 inhibitors and the effect on the acetylation level of α-tubulin was determined using Western blots (FIG. 1).
A general note: A western blot detects proteins with antibodies after separation by electrophoresis.

The subject of series [3] is TNF-α and IL-6 in LPS stimulated human THP-1 macrophages. The settings on record: reported; cited from earlier work.

As for `O=C(NO)c1ccc(N(Cc2ccccc2)Cc2csc3ccc(-c4ccccc4)cc23)cc1` [Compound 8c, 3-[N-benzyl-N-(4-hydroxycarbamoylphenyl)aminomethyl]-5-phenyl-benzothiophene], the melting point (as a rule, the temperature, or range, at which the solid turns liquid) turned out to be 126 °C. Besides, the inhibition (as a rule, the percentage by which the read-out fell short of the control) at 10 µM on HDAC6 turned out to be 47.9%.
On to `Cc1cc(C(=O)NO)ccc1NCc1csc2ccccc12` [Compound 7d, 3-[(4-hydroxycarbamoyl-2-methylphenyl)aminomethyl]-benzothiophene], for which the melting point turned out to be 190 °C. At HDAC6, the inhibition at 10 µM came to 73.4% and the IC50 (in general, the midpoint of a concentration-inhibition curve) turned out to be 2400 nM.
As for `O=C(NO)c1ccc(N(Cc2ccccc2)Cc2csc3ccccc23)cc1` [Compound 8a, 3-[N-benzyl-N-(4-hydroxycarbamoylphenyl)aminomethyl]-benzothiophene], the melting point was 178 °C. Besides, at HDAC6, at 10 µM the inhibition was 89.9% and the IC50 amounted to 470 nM.
`O=C(NO)c1ccc(NCc2csc3cc(-c4ccccc4)ccc23)cc1` [Compound 13b, 3-[(4-hydroxycarbamoylphenyl)aminomethyl]-6-phenyl-benzothiophene] returned a melting point of 190.5 °C. Moreover, at HDAC6, the inhibition at 10 µM amounted to 89.8% and the IC50 is 660 nM.
The corresponding values for `O=C(NO)c1ccc(N(Cc2ccccc2)Cc2csc3cc(Br)ccc23)cc1` [Compound 14a, 6-bromo-3-[N-benzyl-N-(4-hydroxycarbamoylphenyl)aminomethyl]-benzothiophene] are 97.5 °C, 70.7% and 2100 nM.
Regarding `O=C(NO)c1ccc(NCc2csc3ccc(-c4ccccc4)cc23)cc1` [Compound 7c, 3-[(4-hydroxycarbamoylphenyl)aminomethyl]-5-phenyl-benzothiophene], the melting point was determined as 181 °C. In addition, at HDAC6, the inhibition at 10 µM worked out at 95.1% and the IC50 was 310 nM.
In turn, `O=C(NO)c1ccc(N(Cc2ccccc2)Cc2csc3cc(-c4ccccc4)ccc23)cc1` [Compound 14b, 3-[N-benzyl-N-(4-hydroxycarbamoylphenyl)aminomethyl]-6-phenyl-benzothiophene] displayed a melting point of 102 °C. The compound further had an inhibition at 10 µM on HDAC6 of 61.1%.
In turn, `O=C(NO)c1ccc(N(Cc2ccccc2)Cc2csc3ccc(Br)cc23)cc1` [Compound 8b, 5-bromo-3-[N-benzyl-N-(4-hydroxycarbamoylphenyl)aminomethyl]-benzothiophene] gave a melting point of 179 °C. For the same compound, on HDAC6, at 10 µM the inhibition was 84.9% and the IC50 amounted to 850 nM.
On to `CNCC(Cl)c1ccc(OC(C)=O)cc1.Cl` (stereo not drawn) [CpdA, reference compound], for which the “targeting of AP-1-driven promoters” value in the series on AP-1 is on record as “does not target AP-1-driven promoters”. Also, the “GRE-dependent reporter gene activity, reference compounds” value in series [1] was “able to lower the GRE-dependent reporter gene activity”.
As to `CN1CCc2c(c3ccccc3n2Cc2ccc(C(=O)NO)cc2)C1` [Tub A, Tubastatin A, reference compound], the “normalized ratio Acetyl α-Tubulin/α-Tubulin against Tubastatin A, Average” value is 34.97 and 25.12 and 23.86 in series [2] (50 nM); 44.00 and 41.43 and 34.18 in series [2] (100 nM); 66.24 and 73.15 and 70.36 in series [2] (500 nM); 100.00 in series [2] (1 μM). Also, the “normalized ratio Acetyl α-Tubulin/α-Tubulin against Tubastatin A” value in series [2] (1 μM, single experiments N = 1 to 4, Tub A 1 μM = 100) is 100.00. For the same compound, in series [3], the “inhibition of TNF-α and IL-6” value is “significantly inhibit TNF-α and IL-6”.
The compound `O=C(NO)c1ccc(NCc2c[nH]c3ccccc23)cc1` [Compound 18, 3-[(4-hydroxycarbamoylphenyl)aminomethyl]indole] returned a melting point of 132.5 °C. Also, at HDAC6, the inhibition at 10 µM amounted to 99% and the IC50 is 200 nM.
